The source of these data is patent publication US20070087975A1, “Compound useful for the prevention and treatment of left ventricular hypertrophy in dialysed patients” (SIGMA-TAU INDUSTRIE FARMACEUTICHE RIUNITE SPA, priority 2005, published 2007).

Assay [1] relates to left ventricular (LV) function. The settings on record: 58 patients with primary glomerulonephritis and moderate chronic renal failure; cited from earlier work.
In assay [2] the test system is decompensated eccentric hypertrophy produced by myocardial infarction. The settings on record: rats without renal damages; similar to ACE inhibition; cited from earlier work.
For assay [3], the system named is left ventricular hypertrophy (LVH) in ESRD dialysed patients. Description: Clinical trial of propionyl L-carnitine in ESRD patients on dialysis (multicentre, randomized, double-blind, placebo-controlled, echocardiography). The class given is in vivo, human. The settings on record: 26 weeks. The protocol:
A clinical trial (multicentre, parallel, randomized, double-blind, dose- ranging placebo-controlled study in 300 patients) useful for evaluating both preventive and/or curative effect of the treatment with propionyl L-carnitine (3 and 6 mg/kg given intravenously three times a week at the end of the hemodyalisis session for 26 weeks) has been done.
1) male or female out-patients aged >18 years, suffering from ESRD on bicarbonate dialysis three times a week;
2) patients who have reached a certain degree of dialytic stability (at least since six months on dialysis), so that the variability due to the progressive patient adaptation of the therapeutic treatment is controlled, presenting no clinical signs of hydric overload at the end of dialysis;
3) patients showing a degree of cardiac deterioration defined as inter-ventricular septum and left ventricular wall thickness ≧11 mm;
4) patients with left ventricular ejection fraction >40%;
During the whole Randomised Treatment Period, all drugs considered indispensable for the treatment of the disease under study could be administrated providing that they were administered for at least three months prior to patient's enrollment, and that the dosage of those drugs remained stable throughout the whole treatment period. […]

Consider `C[C@H](CS)C(=O)N1CCC[C@H]1C(=O)O` [captopril], for which, in assay [1], the “LV ejection fraction, early and late transmitral flow velocities and early to late LV inflow velocities ratio” value is given as “not significantly affected”.
With `CCOC(=O)[C@H](CCc1ccccc1)N[C@@H](C)C(=O)N1CCC[C@H]1C(=O)O` [enalapril], the “LV ejection fraction, early and late transmitral flow velocities and early to late LV inflow velocities ratio” value in assay [1] is reported as “not significantly affected”.
On to `CCC(=O)O[C@H](CC(=O)[O-])C[N+](C)(C)C` [propionyl L-carnitine], for which the “magnitude of decompensated eccentric hypertrophy produced by myocardial infarction” value in assay [2] was “reduces the magnitude of decompensated eccentric hypertrophy”. Besides, the “effect on the signs of LVH, signs (a)-(c): septum and posterior wall thickness, end-systolic and end-diastolic LV size and volume, LV ejection fraction” value in assay [3] (3 and 6 mg/kg i.v. three times a week at end of hemodialysis session, preliminary ANOVA analysis) is given as “useful for treating the signs of LVH”. Moreover, the “progression of the signs of LVH, points (a)-(c), in the treated group respect to its base line” value in assay [3] (T26 vs T0, 3 and 6 mg/kg i.v. three times a week, control group signs worsened) is listed as “able to reduce the progression of the signs of LVH”.
